Assay results reported in article PMC9124820, “In vitro evaluation of fenfluramine and norfenfluramine as victims of drug interactions” (Pharmacology Research & Perspectives, 2022).

How the values were obtained:
MATE1 = target: T1, MATE1 (Homo sapiens, UniProt Q96FL8); assay: Transporter substrate determination, uptake in HEK293-MATE1 cells; type: in vitro ADME; conditions: for Maximum Ratio (uptake in transporter‐expressing cells to empty‐vector control cells): HEK293‐MATE1, 0.1, 1, 10 µM, threshold ≥2‐fold; for substrate of the transporter: MATE1
T1 construct: host or cells: HEK293
T1 sequence (Q96FL8 1-570): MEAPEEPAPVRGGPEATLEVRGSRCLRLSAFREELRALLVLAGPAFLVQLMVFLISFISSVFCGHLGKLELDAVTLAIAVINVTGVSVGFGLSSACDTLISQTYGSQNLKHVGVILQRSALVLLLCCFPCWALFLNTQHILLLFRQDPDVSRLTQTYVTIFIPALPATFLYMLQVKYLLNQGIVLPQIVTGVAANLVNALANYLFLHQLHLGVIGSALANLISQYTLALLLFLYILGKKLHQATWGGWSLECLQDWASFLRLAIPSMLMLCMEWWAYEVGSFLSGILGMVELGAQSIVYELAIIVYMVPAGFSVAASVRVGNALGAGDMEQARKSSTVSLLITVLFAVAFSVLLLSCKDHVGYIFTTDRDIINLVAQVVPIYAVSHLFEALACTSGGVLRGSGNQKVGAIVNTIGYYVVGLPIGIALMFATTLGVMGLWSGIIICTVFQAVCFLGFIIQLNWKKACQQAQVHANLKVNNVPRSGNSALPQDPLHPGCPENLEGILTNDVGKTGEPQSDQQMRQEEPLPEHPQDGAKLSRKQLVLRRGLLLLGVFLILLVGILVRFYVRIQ
Method: (§1) LC‐MS/MS analyses to assess metabolic stability and identify the transporter substrate were performed using an API 4000 QTRAP mass spectrometer (SCIEX, Framingham, MA) with electrospray ionization in positive mode. Chromatography was performed using an Atlantis dC18 analytical column (100 × 2.1 mm, 5 µm; Waters Corporation, Milford, MA). Mobile phases were 0.2% v/v formic acid in water and 0.2% v/v formic acid in acetonitrile. For metabolic stability experiments, FFA and metabolites were eluted at a flow rate of 0.6 mL/min, with a linear gradient of 20%−80% acetonitrile from 0.30−2.0 min. For transporter substrate experiments, the gradient was slightly modified to achieve suitable chromatography. The mass transitions monitored were 232.0 > 159.0 for FFA and 348.0 > 330.0 for 1ʹ‐OH‐midazolam‐d4 internal standard.
(§2) FFA and nFFA were evaluated as substrates of the transporters breast cancer resistance protein (BCRP), organic anion transporter (OAT)1, OAT3, organic cation transporter (OCT)2, MATE1, MATE2‐K, and P‐glycoprotein multidrug transporter (P‐gp; also known as MDR1 and ABCB1), according to published methods.[25], [26], [27], [28], [29] Madin‐Darby canine kidney (MDCKII)‐BCRP cells (Netherlands Cancer Institute, Amsterdam, Netherlands) or human embryonic kidney (HEK)293 cells transfected with other transporters (Sekisui Medical Co., Ltd., Tokyo, Japan) were used. Transporter‐transfected and control cells were incubated with FFA or nFFA (0.1, 1, or 10 μM), and the amount of FFA and nFFA accumulated in the cells was measured by LC‐MS/MS as described above. The accumulation of positive control substrates in the presence and absence of an inhibitor served as a positive control for transporter function. […] BCRP substrate determination was made by bi‐directional permeability across MDCKII‐BCRP and control cells cultured on 24‐well transwell plates. Incubation medium containing probe substrate was added. Ten minutes later, transepithelial electrical resistance (TEER) was recorded and cells were preincubated at 37 ± 2°C for 30−60 min before FFA or nFFA or positive control substrate with the solvent control or positive control inhibitor was added to the donor (apical) chamber. […] Samples containing FFA, nFFA, or probe substrate were mixed with internal standard and analyzed by LC‐MS/MS. […] An aliquot was added to 96‐well plate containing scintillation fluid that was analyzed by a MicroBeta^2 scintillation counter (Perkin Elmer, Waltham, MA). Protein concentration was determined by a bicinchoninic acid (BCA) protein assay according to the manufacturer’s protocol (Thermo Fisher Scientific, Waltham, MA). Non‐radiolabeled compounds were resuspended in a 50:50 v/v methanol:water solution containing internal standard and were analyzed by LC‐MS/MS. […]

OAT3 = target: T2, OAT3 (Homo sapiens, UniProt Q8TCC7); assay: Transporter substrate determination, uptake in HEK293-OAT3 cells; type: in vitro ADME; conditions: for Maximum Ratio (uptake in transporter‐expressing cells to empty‐vector control cells): HEK293‐OAT3, 0.1, 1, 10 µM, threshold ≥2‐fold; for substrate of the transporter: OAT3
T2 construct: host or cells: HEK293
T2 sequence (Q8TCC7 1-542): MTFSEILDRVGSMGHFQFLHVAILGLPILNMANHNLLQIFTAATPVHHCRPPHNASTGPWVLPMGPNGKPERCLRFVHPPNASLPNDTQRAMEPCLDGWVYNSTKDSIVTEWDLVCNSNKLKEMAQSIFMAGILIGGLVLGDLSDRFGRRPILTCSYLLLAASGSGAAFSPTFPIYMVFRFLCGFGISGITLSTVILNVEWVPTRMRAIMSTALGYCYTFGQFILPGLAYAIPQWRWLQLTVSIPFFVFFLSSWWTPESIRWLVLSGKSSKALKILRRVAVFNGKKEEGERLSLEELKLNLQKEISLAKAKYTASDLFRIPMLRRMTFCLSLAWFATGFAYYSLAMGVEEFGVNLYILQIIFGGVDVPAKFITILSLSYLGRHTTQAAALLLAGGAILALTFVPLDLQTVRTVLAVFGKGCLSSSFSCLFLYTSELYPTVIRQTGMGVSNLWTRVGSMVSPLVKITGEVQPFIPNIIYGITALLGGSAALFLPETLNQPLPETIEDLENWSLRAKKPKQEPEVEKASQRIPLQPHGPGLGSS
Method: as §1, §2

Which results are given for `CCNC(C)Cc1cccc(C(F)(F)F)c1` (racemic) [FFA, (RS)‐ethyl (α‐methyl‐3‐trifluoromethylphenethyl)amine]?
Maximum Ratio (uptake in transporter‐expressing cells to empty‐vector control cells) (MATE1): 1.10; substrate of the transporter (MATE1): not substrates; Maximum Ratio (uptake in transporter‐expressing cells to empty‐vector control cells) (OAT3): 1.15; substrate of the transporter (OAT3): not substrates

What does the source list for `CC(N)Cc1cccc(C(F)(F)F)c1.Cl` (centres unmarked) [nFFA, 1‐(3‐(trifluoromethyl)phenyl)propan‐2‐amine hydrochloride]?
Maximum Ratio (uptake in transporter‐expressing cells to empty‐vector control cells) (MATE1): 1.00; substrate of the transporter (MATE1): not substrates; Maximum Ratio (uptake in transporter‐expressing cells to empty‐vector control cells) (OAT3): 1.74; substrate of the transporter (OAT3): not substrates
